# US20220227720A1, “DHODH INHIBITORS AND THEIR USE AS ANTIVIRAL AGENTS” (priority 2019, published 2022)
# Like-named read-outs stand apart in the source and are kept apart here.
# Experiments:
# TOSV = test: microbe, parasite or virus in culture; assay type: cell-based, Toscana virus
# [1] = Cytotoxicity assay (CellTiter-Blue), Vero E6 cells; settings: for CC50: cell line not given; for CC50 at 4 days: monkey (simian), Vero E6 cells, CC50, Simian Vero E6 cells, value repeated under each virus
# HAZV = test: microbe, parasite or virus in culture; assay type: cell-based; settings: Hazara virus, Vero C1008, read-out: IC50 HAZV
# RVFV [2] = test: microbe, parasite or virus in culture; assay type: cell-based; settings: Rift Valley fever virus, Vero C1008, read-out: IC50 RVFV
# TBEV [3] = test: microbe, parasite or virus in culture; assay type: cell-based; settings: Tick-borne encephalitis virus, Vero C1008, read-out: IC50 TBEV
# VEEV [4] = test: microbe, parasite or virus in culture; assay type: cell-based; settings: Venezuelan equine encephalitis virus, Vero C1008, read-out: IC50 VEEV
# RVFV [5] = test: microbe, parasite or virus in culture; assay type: cell-based; settings: Rift Valley fever virus, L929, in Mus musculus, read-out: IC50 RVFV
# TBEV [6] = test: microbe, parasite or virus in culture; assay type: cell-based; settings: Tick-borne encephalitis virus, L929, in Mus musculus, read-out: IC50 TBEV
# VEEV [7] = test: microbe, parasite or virus in culture; assay type: cell-based; settings: Venezuelan equine encephalitis virus, L929, in Mus musculus, read-out: IC50 VEEV
# RVFV [8] = test: microbe, parasite or virus in culture; assay type: cell-based; settings: Rift Valley fever virus, BHK-21, in Mesocricetus auratus, read-out: IC50 RVFV
# YFV [9] = test: microbe, parasite or virus in culture; assay type: cell-based; settings: Yellow fever virus, BHK-21, in Mesocricetus auratus, read-out: IC50 YFV
# VEEV [10] = test: microbe, parasite or virus in culture; assay type: cell-based; settings: Venezuelan equine encephalitis virus, HEK293, read-out: IC50 VEEV
# Plasma stability = settings: 1 μm, 37° C., mouse plasma diluted with 1 volume of PBS pH 7.4
# Solubility in PBS pH 7.4 = settings: PBS pH 7.4, 20 °C, pH 7.4, aqueous buffer
# [11] = Log D (PBS pH 7.4/octanol)
# [12] = Hepatic microsome stability; settings: 1 μm, 37° C., 0.5 mg/mL microsomes of mouse liver; cofactor: NADPH
# [13] = Cytotoxicity assay, L929 cells; settings: mouse
# [14] = Hydrolysis study in mouse liver extract; settings: FIG. 1, FIG. 2
# TAHV = test: microbe, parasite or virus in culture; assay type: cell-based; settings: Tahyna virus, Vero C1008, read-out: IC50 TAHV
# Vero E6 cells = test: Cytotoxicity assay (CellTiter-Blue), Vero E6 cells; settings: Simian Vero E6 cells; value repeated under each virus
# YFV [15] = test: microbe, parasite or virus in culture; assay type: cell-based; settings: Yellow fever virus, Vero C1008, read-out: IC50 YFV
# RVFV [16] = test: microbe, parasite or virus in culture; assay type: cell-based; settings: Rift Valley fever virus, SW13, read-out: IC50 RVFV
# TBEV [17] = test: microbe, parasite or virus in culture; assay type: cell-based; settings: Tick-borne encephalitis virus, SW13, read-out: IC50 TBEV
# VEEV [18] = test: microbe, parasite or virus in culture; assay type: cell-based; settings: Venezuelan equine encephalitis virus, SW13, read-out: IC50 VEEV
# RVFV [19] = test: microbe, parasite or virus in culture; assay type: cell-based; settings: Rift Valley fever virus, HEK293, read-out: IC50 RVFV
# [20] = Metabolic stability in S9 fraction
# DENV = test: Virus yield reduction assay, DENV in Vero E6 cells; assay type: cell-based; settings: Dengue virus, Vero C1008; Simian Vero E6 cells; FLAVI virus family
# VEEV [21] = test: microbe, parasite or virus in culture; assay type: cell-based; settings: Venezuelan equine encephalitis virus, BHK-21, in Mesocricetus auratus, read-out: IC50 VEEV
# [22] = Cytotoxicity assay, SW13 cells; settings: human
# [23] = Cytotoxicity assay, BHK-21 cells; settings: hamster, BHK-21 cells, CC50, Hamster BHK-21 cells; value repeated under each virus
# [24] = Cytotoxicity assay (CellTiter-Blue), HEK-293 cells; settings: human
# ZIKV = test: Virus yield reduction assay, ZIKV in Vero E6 cells; assay type: cell-based; settings: Zika virus, Vero C1008; Simian Vero E6 cells; FLAVI virus family
# TBEV [25] = test: microbe, parasite or virus in culture; assay type: cell-based; settings: Tick-borne encephalitis virus, HEK293, read-out: IC50 TBEV
# [26] = Toscana virus, Vero C1008, read-out: IC50 (TOSV)
smiles,measurement,setting,value
O=C(O)c1ccccc1NC(=O)n1ccc2ccccc21 [Example 14],IC50,TOSV; [26],9000 nM
same,CC50,[1],40000 nM
CCC(=O)Nc1ccc(-c2ccc(-c3ccccc3)cc2)cc1C(=O)O [Example 6],IC50,TOSV; [26],120 nM
same,IC50,HAZV,120 nM
same,IC50,RVFV [2],140 nM
same,IC50,TBEV [3],120 ± 10 nM
same,IC50,VEEV [4],120 nM
same,IC50,RVFV [5],3 nM
same,IC50,TBEV [6],9 nM
same,IC50,VEEV [7],9 nM
same,IC50,RVFV [8],> 200 nM
same,IC50,YFV [9],> 200 nM
same,IC50,VEEV [10],19 nM
same,Plasma stability [% remaining at 2 h],Plasma stability,94 ± 6 % remaining at 2 h
same,solubility,Solubility in PBS pH 7.4,61 ± 17 µM
same,logD,[11],3.07 ± 0.05
same,Hepatic microsome stability [% remaining at 1 h],[12],49 ± 0 % remaining at 1 h
same,CC50,[13],15000 nM
same,Hydrolysis in mouse liver extract (amide bond stability),[14],more stable
same,CC50 at 4 days,[1],10000 nM
O=C(O)c1ccccc1Nc1ccc(Cc2ccccc2)cc1 [Example 5],IC50,TOSV; [26],325 nM
same,IC50,HAZV,360 nM
same,IC50,TAHV,450 nM
same,IC50,VEEV [7],> 1000 nM
same,CC50,[13],60000 nM
same,CC50 at 4 days,[1],44000 nM
same,CC50,Vero E6 cells,77500 nM
CCC(C)c1ccccc1OCCCC(=O)Nc1cnccc1C(=O)O (stereo not drawn) [Example 15],IC50,TOSV; [26],~500 nM
same,CC50,[1],> 25000 nM
CS(N)(=O)=O [methyl sulfonamide],IC50,TOSV; read-out: IC50 (TOSV),1500 nM
CC(C)c1ccccc1SCC(=O)Nc1ccccc1C(=O)O [Example 2],IC50,TOSV; [26],550 ± 50 nM
same,IC50,HAZV,700 ± 200 nM
same,IC50,TAHV,270 nM
same,IC50,RVFV [2],~2000 nM
same,IC50,YFV [15],700 ± 200 nM
same,IC50,RVFV [16],500 nM
same,IC50,TBEV [17],930 nM
same,IC50,VEEV [18],1500 nM
same,IC50,RVFV [19],400 nM
same,IC50,VEEV [10],450 nM
same,CC50 at 4 days,[1],110000 ± 10000 nM
O=C(COc1ccccc1Cc1ccccc1)Nc1ccc2c(c1C(=O)O)OC(F)(F)O2 [Example 17],IC50,TOSV; [26],6000 nM
same,CC50,[1],32000 nM
CCc1nc2cc(-c3ccc(-c4ccccc4)cc3)cc(C(=O)O)c2[nH]1 [Example 19],IC50,TOSV; [26],118 nM
same,CC50,[1],8000 nM
CCC(=O)Nc1ccc(-c2ccc(-c3ccccc3)c(F)c2)cc1C(=O)O [Example 7],IC50,TOSV; [26],110 nM
same,IC50,HAZV,70 nM
same,IC50,TAHV,120 nM
same,IC50,RVFV [2],120 nM
same,IC50,TBEV [3],13 nM
same,IC50,VEEV [4],120 nM
same,IC50,RVFV [5],5.5 nM
same,IC50,TBEV [6],4 nM
same,IC50,VEEV [7],7 nM
same,IC50,VEEV [10],14 nM
same,CC50,[13],9000 nM
same,CC50 at 4 days,[1],15000 nM
CCC(C)(C)c1ccccc1OCCOC(=O)Nc1ccccc1C(=O)O [Example 13],IC50,TOSV; [26],128 nM
same,Metabolic stability in a S9 fraction (rat),[20],high metabolic stability
same,CC50,[1],> 25000 nM
Cc1ccc2nc(COc3ccc(Cl)cc3Cc3ccccc3)oc(=O)c2c1 [Example 21],IC50,TOSV; [26],800 nM
same,CC50,[1],> 100000 nM
COc1ccc(Nc2ccc(Oc3ccccc3)cc2)c(C(=O)O)c1 [Example 4],IC50,TOSV; [26],80 nM
same,IC50,HAZV,120 nM
same,IC50,TAHV,100 nM
same,IC50,RVFV [2],20 nM
same,IC50,YFV [15],220 nM
same,IC50,DENV,180 nM
same,IC50,TBEV [3],120 nM
same,IC50,VEEV [4],60 nM
same,IC50,TBEV [6],160 nM
same,IC50,VEEV [7],220 nM
same,IC50,RVFV [8],850 nM
same,IC50,VEEV [21],1300 nM
same,IC50,RVFV [16],130 nM
same,IC50,TBEV [17],380 nM
same,IC50,VEEV [18],220 nM
same,CC50,[13],70000 nM
same,CC50,[22],75000 nM
same,CC50,[23],125000 nM
same,CC50 at 4 days,[1],71000 ± 1000 nM
same,CC50,Vero E6 cells,37900 nM
same,CC50 at 3 days,[24],125000 nM
"CCCCCc1ccc(C#Cc2ccc(NC(=O)CC)c(C(=O)O)c2)cc1 [Example 8, 5-((4-pentylphenyl)ethynyl)-2-propionamidobenzoic acid]",IC50,TOSV; [26],10 nM
same,IC50,HAZV,8 nM
same,IC50,TAHV,10 nM
same,IC50,RVFV [2],6 nM
same,IC50,YFV [15],6 nM
same,IC50,DENV,5 nM
same,IC50,TBEV [3],70 nM
same,IC50,ZIKV,9 nM
same,IC50,VEEV [4],7 nM
same,IC50,RVFV [5],2 nM
same,IC50,TBEV [6],1.5 nM
same,IC50,VEEV [7],3 nM
same,IC50,RVFV [8],16 nM
same,IC50,YFV [9],22 nM
same,IC50,RVFV [16],8 nM
same,IC50,TBEV [17],13 nM
same,IC50,VEEV [18],13 nM
same,IC50,RVFV [19],1.5 nM
same,IC50,TBEV [25],3.1 nM
same,IC50,VEEV [10],1.5 nM
same,Plasma stability [% remaining at 2 h],Plasma stability,114 ± 5 % remaining at 2 h
same,solubility,Solubility in PBS pH 7.4,18 ± 6 µM
same,logD,[11],4.6 ± 0.3
same,Hepatic microsome stability [% remaining at 1 h],[12],70 ± 3 % remaining at 1 h
same,CC50,[13],5000 nM
same,CC50,[22],20000 nM
same,CC50,[23],7500 nM
same,CC50 at 4 days,[1],8000 nM
CCC(C)c1ccccc1OCCOC(=O)Nc1ccccc1C(=O)O (stereo not drawn) [Example 12],IC50,TOSV; [26],190 nM
same,Metabolic stability in a S9 fraction (rat),[20],high metabolic stability
same,CC50,[1],51000 nM
CCC(C)c1ccccc1OCC(=O)Nc1ccc2c(c1C(=O)O)OC(F)(F)O2 (stereo not drawn) [Example 16],IC50,TOSV; [26],4000 nM
same,CC50,[1],37000 nM
CCC(C)c1ccccc1OCCCc1nc2ccc(F)cc2c(=O)o1 (stereo not drawn) [Example 22],IC50,TOSV; [26],300 nM
same,CC50,[1],17000 nM
CCC(C)c1ccccc1OCc1nc2ccc(C)cc2c(=O)o1 (stereo not drawn) [Example 20],IC50,TOSV; [26],600 nM
same,CC50,[1],75000 nM
